Patent US20050031661A1, “Attractants for moths” (priority 2003, published 2005)

Legend:
alfalfa looper moths [1] = test: Single component floral lures, Universal moth trap captures (Example 2); type: in vivo, Autographa californica; settings: Universal moth traps baited with individual floral chemicals dispensed from polypropylene vials (5 ml, 3 mm hole)
From the text: (§1) Materials and Methods. A multi-colored version of the Universal Moth Trap, or UniTrap® (AgriSense, sold by Great Lakes IPM, Vestaburg, Mich.), was used in all experiments. The trap is an opaque white bucket beneath a yellow cone and a green lid. A 2.5×2.5 cm piece of Vaportape® (Hercon Environmental, Emigsville, Pa.) was placed in each trap bucket as a killing agent. Traps were hung from stakes at a height of about one meter in uncultivated areas adjacent to fields of alfalfa or directly within alfalfa fields. Traps were placed 12 meters apart in a north to south orientation, because of prevailing westerly winds.
(§2) For all experiments, a randomized complete block design was used, and treatments were randomized each time traps were checked. Traps were checked twice per week, at which time all insects in the traps were placed in pre-labeled plastic bags for transport to the laboratory. Moths were identified and sorted by sex under a dissecting microscope.
(§3) β-Pinene, (R)-(+)-α-pinene, (S)-(−)-limonene, β-myrcene, phenylacetaldehyde, methyl salicylate, and methyl-2-methoxybenzoate were purchased from Aldrich Chemical Co. (Milwaukee, Wis.). (R)-(+)-limonene was purchased from Acros Chemical Co. (Milwaukee, Wis.).
(§4) Polypropylene vials (8 ml) were used as dispensers for release of chemicals tested, following the methods used in Landolt et al., 2001, supra. Chemicals (5 ml) were pipetted onto cotton in the bottom of the vial. Holes made in vial lids (3 mm diameter) permitted the escape of volatilized chemicals. Vials were suspended with wire near the bottom of the inside of the bucket of the UniTrap®. When more than one chemical was used to bait a trap, a separate vial was used for each chemical. Dispensers were replaced after two weeks when experiments lasted longer than two weeks.
(§5) A comparison was made of moth captures in traps baited with seven different chemicals that are emitted by flowers. These chemicals were phenylacetaldehyde, (included as a positive control and standard for comparison), methyl salicylate, racemic limonene, methyl-2-methoxybenzoate, (R)-(+)-α-pinene, (S)-(−)-β-pinene, and β-myrcene. Five replicate blocks, each including these seven chemical treatments and an unbaited trap, were set up on 18 May 2001 and were maintained until 1 Jun. 2001. The study was conducted at an experimental farm about 20 km east of the town of Moxee, in Yakima County, Wash. The same study was conducted again 3-27 July 2001 near Mattawa, Grant County, Wash., in order to take advantage of cabbage looper populations that became apparent in mid summer.
(§6) Trap catch data were subjected to an ANOVA and treatment means were separated using Tukey's test, following a significant F value in the ANOVA.

cabbage looper moths = test: as above; type: in vivo, Trichoplusia ni; settings: Universal moth traps baited with individual floral chemicals dispensed from polypropylene vials (5 ml, 3 mm hole)
From the text: as §1, §2, §3, §4, §5, §6

corn earworm moths [2] = test: Single component floral lures, 2001 field season (Example 3); type: in vivo, Helicoverpa zea; settings: Universal Moth Traps baited with individual floral chemicals from polypropylene vials
From the text: (§7) Materials and Methods. The Universal Moth Trap (Great Lakes IPM, Vestaburg, Mich.) was used in all tests, with a 6 cm^2 piece of Vaportape® (Hercon Environmental Inc., Emigsville, Pa.) in each trap bucket to kill captured moths. The trap is an opaque white bucket with a yellow cone and green lid. Traps were hung from stakes in the weedy borders around irrigated fields in the vicinity of sweet corn and alfalfa, near Mattawa, Grant County, Wash. Traps were placed 12 meters apart in a north to south orientation, because of prevailing westerly winds.
(§8) A randomized complete block design was used, and treatments (trap lures) were randomized each time that traps were checked. Traps were checked twice per week, and insects were placed in pre-labeled plastic bags for transport to the laboratory where they were stored in a freezer until processed. Moths were sorted by sex and identified to species with the aid of a dissecting microscope.
β-Pinene, R-(+)-alpha-pinene, (S)-(−)-limonene, β-myrcene, phenylacetaldehyde, methyl salicylate, and methyl-2-methoxybenzoate were purchased from Aldrich Chemical Inc. (Milwaukee, Wis.). (R)-(+)-limonene was purchased from Acros Chemical Co. (Milwaukee, Wis.).
(§9) Unless reported otherwise, polypropylene vials (8 ml) were used as dispensers for release of chemicals tested following the methods of Landolt et al., 2001, supra. Chemicals (5 ml) were pipetted onto cotton in the bottom of the vial. Holes made in the lids (3 mm diameter) permitted the escape of volatilized chemicals from the vials. Vials were suspended with wire near the bottom of the inside of the bucket of the trap. When more than one chemical was used to bait a trap, a separate vial was used for each chemical. Dispensers were replaced every 2 weeks when experiments lasted longer than two weeks.
A second comparison of floral compounds was made in the 2001 field season, for attractiveness to corn earworm moths. These chemicals were phenylacetaldehyde, methyl salicylate, racemic limonene, methyl-2-methoxybenzoate, […], (S)-beta pinene, and β-myrcene. Five replicate blocks, each including these seven chemical treatments and an unbaited trap as a control, were set up on 3 Jul. 2001 and were maintained until 27 Jul. 2001.
as §6

alfalfa looper moths [3] = test: Double component blends, benzyl acetate plus, trap captures; type: in vivo, Autographa californica; settings: Universal moth traps; benzyl acetate (BA) alone, PAA alone, or BA plus second chemical in separate vials
From the text: as §1, §2
as §4, with “When more than one chemical was used to bait a trap, a separate vial was used for each chemical. Dispensers were replaced after two weeks when experiments lasted longer than two weeks.” left out

corn earworm moths [4] = test: Single component floral lures, 2000 field season (Example 3); type: in vivo, Helicoverpa zea; settings: Universal Moth Traps baited with individual floral chemicals from polypropylene vials
From the text: as §7, §8, §9
During the 2000 field season, seven floral compounds were evaluated for attractiveness to corn earworm moths, testing them as lures in traps. These compounds were phenylacetaldehyde, benzyl alcohol, benzyl aldehyde, benzyl acetate, cis jasmone, linalool and phenethyl alcohol. A randomized complete block design was used, with 5 replicate blocks set up. Each block included an unbaited trap as a control.
as §6

alfalfa looper moth = settings: Landolt et al., 2001; cited from earlier work
corn earworm moths [5] = test: Double component Test 7, linalool, benzyl aldehyde, phenethyl alcohol combinations; type: in vivo, Helicoverpa zea; settings: single and double component combinations dispensed from vials
From the text: as §7, §8, §9
Seven double component tests were conducted. For each two-component combinations, two vials were placed in the bucket of the trap; one vial containing phenylacetaldehyde and the other vial containing the second chemical (excepting the use of septa as dispensers for the third double component test that involved terpenes. Five replicate blocks, each including one of each of the different two-chemical combinations as well as phenylacetaldehyde alone, were set up and were maintained for two weeks.
Test 7. The combinations of linalool plus benzyl aldehyde, phenethyl alcohol plus benzaldehyde, and phenethyl alcohol plus linalool were compared to phenylacetaldehyde alone, linalool alone, benzyl aldehyde alone and phenethyl alcohol alone.
as §6

corn earworm moths [6] = test: Double component Test 6, combinations with benzyl alcohol; type: in vivo, Helicoverpa zea; settings: single and double component combinations dispensed from vials
From the text: as §7, §8
as §9, with “When more than one chemical was used to bait a trap, a separate vial was used for each chemical. Dispensers were replaced every 2 weeks when experiments lasted longer than two weeks.” left out

corn earworm moths [7] = settings: Cantelo and Jacobson, 1979b; cited from earlier work

| Structure (SMILES) | Mean (±SE) numbers of alfalfa looper moths captured (alfalfa looper moths [1]) | Mean (±SE) numbers of cabbage looper moths captured (cabbage looper moths) | Mean (±SE) numbers of corn earworm moths captured (corn earworm moths [2]) | Mean (±SE) numbers of alfalfa looper moths captured (alfalfa looper moths [3]) | Mean (±SE) numbers of corn earworm moths captured (corn earworm moths [4]) | Attraction of alfalfa looper moths (capture in baited traps) (alfalfa looper moth) | Mean (±SE) numbers of corn earworm moths captured (corn earworm moths [5]) | Mean (±SE) numbers of corn earworm moths captured (corn earworm moths [6]) | Attraction of corn earworm moths (corn earworm moths [7]) |
| --- | --- | --- | --- | --- | --- | --- | --- | --- | --- |
| CC1=CC[C@@H]2C[C@H]1C2(C)C [α-pinene, (R)-(+)-α-pinene] | 0.0 ± 0.0a | 0.1 ± 0.0a | 0.08 ± 0.04a | – | – | – | – | – | – |
| CC(=O)OCc1ccccc1 [benzyl acetate] | – | – | – | 0.37 ± 0.12c | 0.00 ± 0.00 | attracted | – | – | – |
| C=C(C)[C@H]1CC=C(C)CC1 [limonene] | 0.0 ± 0.0a | 0.0 ± 0.0a | 0.05 ± 0.05a | – | – | – | – | – | – |
| OCCc1ccccc1 [Phenethyl alcohol, phenethyl alcohol] | – | – | – | – | 0.00 ± 0.00 | not attracted | 0.05 ± 0.05a | – | – |
| C=CC(=C)CCC=C(C)C [β-myrcene] | 0.4 ± 0.1b | 0.1 ± 0.1a | 0.20 ± 0.10a | – | – | – | – | – | – |
| COC(=O)c1ccccc1O [methyl salicylate] | 0.1 ± 0.0a | 0.1 ± 0.1a | 0.10 ± 0.05a | – | – | – | – | – | – |
| COC(=O)c1ccccc1OC [methyl-2-methoxybenzoate] | 0.1 ± 0.0a | 0.6 ± 0.2b | 3.90 ± 1.69b | – | – | – | – | – | – |
| OCc1ccccc1 [benzyl alcohol] | – | – | – | – | 0.15 ± 0.08a | not attracted | – | 0.10 ± 0.07a | – |
| O=CCc1ccccc1 [phenylacetaldehyde] | 4.5 ± 0.5c | 7.2 ± 1.0c | 2.35 ± 0.62b | 0.83 ± 0.21e | 0.45 ± 0.22b | attracted | 1.75 ± 0.43c | 2.25 ± 0.35c | attract |
| C=C1CC[C@H]2C[C@@H]1C2(C)C [β-pinene, (S)-(−)-β-pinene] | 0.0 ± 0.0a | 0.0 ± 0.0a | 0.03 ± 0.03a | – | – | – | – | – | – |
| O=Cc1ccccc1 [Benzyl aldehyde, benzyl aldehyde] | – | – | – | – | 0.05 ± 0.05a | not attracted | 0.05 ± 0.05a | – | – |
| C=CC(C)(O)CCC=C(C)C (centres unmarked) [linalool] | – | – | – | – | 0.00 ± 0.00 | not attracted | 0.00 ± 0.00a | – | – |
| CC/C=C\CC1=C(C)CCC1=O [cis-jasmone] | – | – | – | – | 0.00 ± 0.00 | not attracted | – | – | – |
